# Data taken from patent US7314633B2, “Carboxylate-gated-nitroxide (CGN) compounds and compositions and methods of use thereof” (SynZyme Technologies LLC, priority 2001, dated 2008).
# Columns and labels:
# [1] = S-band EPR imaging of penetration and compartmentalization in human skin; assay type: in vivo; details: human volunteer forearm, 3 μL 100 mM in DMSO, topical, by eight hours
# Method: Preliminary S-band EPR spectroscopy and imaging experiments using DETOPS were performed on the skin of a human volunteer. […] Five minutes later, when the deposited solution dried, a specially designed positioning holder with a 7 mm diameter well and bottom disk that locked into a well in the resonator cap was attached to the skin to fix this region of skin to the surface resonator See, “In vivo EPR Imaging of a Distribution and Metabolism of Nitroxide Radicals in Human Skin,” He et al., J. of Magnetic Resonance 148, 155-164 (2001). EPR and EPRI measurements were then started. Measurements on the volunteer were performed for 15 to 20 minutes periods after which there were 30-minute rest periods in which the volunteer removed the arm from the resonator and the magnet. This holder fixed the skin positioning and assured a constant filling factor of the loaded resonator. The positioning holder was left attached to the arm for the entire series of measurements lasting up to 8 hours.
# Referring to FIG. 23, a color-coded image of CNO penetration and compartmentalization in human skin is shown. […] The measurements were performed using S-band (2.2 GHz) EPR imaging system with a specially designed surface resonator as described in He et al., J. of Magnetic Resonance 148, 155-164 (2001). The dotted line marks the surface of the skin. […]
# [2] = Inhibition of peroxynitrite-dependent nitration of HPA; assay type: biochemical; details: 1 mM HPA, 1 mM peroxynitrite, pH 6.5
# Method: Peroxynitrite was made by a procedure described previously. Solution of 1 mM 4-hydroxyphenylacetic acid (HPA, Sigma) were made in 100 mM sodium phosphate at pH 6.5. […] Peroxynitrite was added at a final concentration of 1 mM to start the nitration. […] The nitration was followed spectrophotometrically at 405 nm. The concentration of 4-hydroxy-3-nitrophenylacetate was determined spectrophotometrically (430=4400 M^−1 cm^−1) after the pH of reaction mixtures were increased to 10-11 with NaOH.
# [3] = Chemical hydrolysis of esters by NaOH or KOH, followed by EPR; assay type: physicochemical; details: sodium hydroxide (NaOH), aqueous, EPR pre- and post-hydrolysis
# Method: (§1) After 15 minutes, a 40 μl sample of water or oil was taken for EPR spectral analysis. […] The solution was neutralized with hydrochloric acid and added to 1 ml of water and 2 ml of octanol. The mixture was allowed to partition, and after 15 minutes, a 40 μl sample of water or oil was taken for EPR spectral analysis. EPR spectral were taken using a Varian E9 spectrophotometer. Sweep width was 100 G, frequency was 9.535 GHz, microwave power was […] and the modulation frequency was 100 Hz.
# 20 mg of ^14N-^15N-TE-TOPS was mixed in 1 ml of 10 mM KOH and allowed to incubate overnight at room temperature. The solution was neutralized with hydrochloric acid. EPR spectral were taken using a Varian E9 spectrophotometer. Sweep width was 100 G, frequency was 9.535 GHz, microwave power was […] and the modulation frequency was 100 Hz.
# [4] = Water/octanol partition measured by EPR; assay type: physicochemical; details: 15 minutes, TOPS = presumed product after NaOH hydrolysis of DE-TOPS
# Method: as §1
# [5] = test system: hairless mice
# Method: Topical application was daily 10 minutes prior to UVB radiation. UVB dose was 200 mJ/cm2 during 15 minutes. UVB lamp has spectrum distribution of 290-310 nm at 80% below 310 nm at 20%.
# Same protocol as in example 13 was used for this study.
# [6] = test system: cultured rat cortical neurons; assay: Hemoglobin toxicity in cultured rat cortical neurons (MTT); assay type: cell-based; details: hemoglobin 10 uM, 24 hours
# Method: E-TOPS is neuroprotective in a model of hemorrhagic transformation in stroke. Primary neuronal cultures were made from forebrains of fetal rat pups (embryonic day 15). The cells were dispersed by repeated mechanical trituration in neuronal culture medium (MEM Eagle (Sigma, M4526), supplemented with glutamine (2 mM), penicilin-streptomycine (50 Units/ml-0.05mg/ml), heat-inactivated horse serum (10%), fetal bovine serum (10%), glucose (0.5% or 28 mM). Following centrifugation (900 g; 5 min), the cells were placed onto poly-L-lysine-coated 96 well plates at a density of […]. Hemoglobin in saline was added at 10 uM final concentration and ETOPS were added at 10 uM, 1 uM, and 0.1 uM final concentration. 24 hours after incubation neuronal viability was quantitatively determined using the colorimetric MTT assay. MTT was added to each well such that the final concentration of the dye was 0.15 mg/ml. Plates were then returned to the incubator for 1 hour at which time unincorporated MTT was removed, and the plates allowed to air dry. The purple formazan product present in viable cells was then dissolved by adding acidified isopropanol (with 0.1 N HCl in) and the absorbance intensity (540 nm) was measured using a 96 well plate reader. % Control=(Test A540/Mean Control)×100%.
# [7] = Metabolism and excretion after topical application (EPR of urine and plasma); assay type: in vivo, mouse; details: after 6 hours; 10 day daily topical application
# [8] = test system: cultured rat cortical neurons; assay: SIN-1 (peroxynitrite generator) toxicity in cultured rat cortical neurons (MTT); assay type: cell-based; details: SIN-1 1 mM, compound added 15 minutes prior
# Method: Primary neuronal cultures were made from forebrains of fetal rat pups (embryonic day 15). The cells were dispersed by repeated mechanical trituration in neuronal culture medium (MEM Eagle (Sigma, M4526), supplemented with glutamine (2 mM), penicilin-streptomycine (50 Units/ml-0.05 mg/ml), heat-inactivated horse serum (10%), fetal bovine serum (10%), glucose (0.5% or 28 mM). Following centrifugation (900 g; 5 min), the cells were placed onto poly-L-lysine-coated 96 well plates at a density of […]. Cytotoxicity was induced in the cells according to a published procedure (Carroll et al 2000). SIN-1 (3-morpholinosydnonimine, Sigma), a PN generator, was dissolved in 50 mM phosphate (pH 5.0) just prior to use, and added to each well to give the final concentration of 1 mM. […] Neuronal viability was quantitatively determined using the colorimetric MTT assay. MTT was added to each well such that the final concentration of the dye was 0.15 mg/ml. Plates were then returned to the incubator for 1 hour at which time unincorporated MTT was removed, and the plates allowed to air dry. The purple formazan product present in viable cells was then dissolved by adding acidified isopropanol (with 0.1 N HCl in) and the absorbance intensity (540 nm) was measured using a 96 well plate reader. % Control=(Test A540/Mean Control)×100%.
# [9] = test system: Rhino mouse; assay: Anti-wrinkle effect in Rhino mouse exposed to UVB; assay type: in vivo; details: compared with Retin-A
# Method: To determine the advantage of CGN compared to commercially available topical therapies, BE-TOPS, Retin-A, and a placebo were administered to the skin of mice exposed to alternate days of UVB radiation.
# [10] = gold standard, previously shown; cited from earlier work
# [11] = test system: mice; assay: Acute toxicity LD50 / survival rate in mice; assay type: in vivo; details: mice, dosage of 2.0 mmol/kg
# Text: (§2) As noted above, the practical, clinical application of unbound, small molecule nitroxides has been limited by the reduced activity in vivo and comparatively short in vivo half-life. The result of the reduced in vivo half-life is the need to administer a larger dose to achieve the same therapeutic or diagnostic effect.
# [12] = Acute toxicity LD50 / survival rate in mice; assay type: in vivo; details: mouse, in vivo
# Text: as §2
# [13] = In vivo plasma half-life by EPR, co-administration of 14N E-TOPS and 15N Tempol
# Method: Plasma half-life is measured by collecting the spectrum each minute for 60 to 90 minutes.
# [14] = test system: human Y-79 cells; assay: TNF-α induced apoptosis of Y-79 cells (annexin V flow cytometry); assay type: cell-based; details: Y-79 cell line, E-TOPS 100 μg/ml, TNF-α 5.0 ng/ml, 6, 24 and 48 hours
# Method: The UV light induced apoptosis may be measured by a model in which apoptosis is induced by exposure to tumor necrosis factor alpha (TNF-α). […] Cultured human Y-79 cells were maintained at pH 7.4 in culture flasks in a mixture of amphotericin/penicillin/streptomycin treated (1% v/v) RPMI 1640 media with L-glutamine and 10% fetal bovine serum in an incubator under 10%-CO2/90%-air brood conditions at 37 degrees Celsius and 20% humidity. […] From this stock solution, 10 μl was added to 1 ml of the cell suspension solution so that the final concentration of ETOPS was 100 μg/ml of ETOPS. Human TNF-μ(10 μg/1 ml) was used to prepare serial media dilutions to obtain TNF-α concentrations of 5.0 ng/ml. Cell densities and viability were determined by trypan blue exclusion assay on a Zeiss inverted microscope to ensure cell concentrations prior to cytometric assaying. […]
# Flow cytometric methods were employed to take advantage of annexin V's reversible and calcium-dependent binding to negatively charged phosphatidylserine (PS) residues in a 1:50 annexin to PS ratio. […] Total samplings averaged 5000 cell events counted out of sample populations averaging well over 1.0×10^6 cells/ml with statistics and regression analysis given for each set of sample quadrants using CellQuest softvare. […]
compound,measurement,setting,value
"CCOC(=O)CC(C(=O)OCC)=C1CC(C)(C)N([O])C(C)(C)C1 [DE-TOPS, Di-ethyl-2,2,6,6-tetramethyl-1-oxy-4-piperidylidene-succinate]",distribution in skin layers compared to tempone (1-D EPR spatial image),[1],enhanced visual distribution throughout the dermis and epidermis
same,inhibition of nitration of HPA by peroxynitrite,[2],inhibited
same,hydrolysis of DE-TOPS to TOPS,[3],near complete conversion
same,partition coefficient (LogP),[4],1.7
same,skin thickening induced by UVB (histopathology),"[5]; 100 mM in petroleum base, topical daily 10 minutes prior to UVB, 11 days, 200 mJ/cm2",dramatically reduces skin thickening
same,"UVB light induced skin thickening, hemorrhage, inflammation",[5]; applying pre and post radiation in mice,"reduces UVB light induced skin thickening, hemorrhage, inflammation"
same,"UVB induced skin lesion, chronic","[5]; same mice kept for 4 month, applied 2 hour before UVB radiation",inhibited
same,inhibition of hemoglobin-induced toxicity of cortical neurons,[6],dose dependent inhibition
same,EPR signal in urine compared with plasma,[7],stronger EPR signal
same,inhibition of peroxynitrite-induced (SIN-1) toxicity on cortical neurons,[8],dose dependent inhibition
same,UVB sensitivity of treated skin,[9],not UVB sensitive
"CC1(C)CC(=C(CC(=O)O)C(=O)O)CC(C)(C)N1[O] [TOPS, 2,2,6,6-tetramethyl-1-oxyl-piperidinene-4-succinate]",inhibition of nitration of HPA by peroxynitrite,[2],inhibited
same,partition coefficient (LogP),[4],−0.9
same,inhibition of hemoglobin-induced toxicity of cortical neurons,[6],dose dependent inhibition
same,inhibition of peroxynitrite-induced (SIN-1) toxicity on cortical neurons,[8],dose dependent inhibition
"CC1(C)CC(O)CC(C)(C)N1[O] [Tempol, 4-hydroxy-2,2,6,6-tetramethylpiperidine-1-oxyl]",prevention of nitration of HPA by peroxynitrite in vitro,[10],prevent the nitration
same,survival rate,[11],zero survival rate
same,LD50,[12],375 mg/kg
same,half-life,"[13]; mouse, in vivo, ip, 80 mg/kg",> 40 min
"monoethyl-2,2,6,6-tetramethyl-1-oxy-4-piperidylidene-succinate [E-TOPS]",apoptosis induced by TNF-α,[14],reduces apoptosis
same,inhibition of nitration of HPA by peroxynitrite,[2],inhibited
same,inhibition of hemoglobin-induced toxicity of cortical neurons,[6],dose dependent inhibition
same,neuronal viability,"[6]; ETOPS at 10 uM, 1 uM, 0.1 uM",increased neuronal viability
same,inhibition of peroxynitrite-induced (SIN-1) toxicity on cortical neurons,[8],dose dependent inhibition
same,in vivo half-life compared to Tempol,"[13]; intravenous, intramuscular, oral and intraperitoneal administration at 200 mg/kg",increased in vivo half-life compared to Tempol
same,in vivo plasma half-life compared to Tempol,"[13]; mice, administered orally, 125 mg/kg E-TOPS and 80 mg/kg Tempol",extended
same,in vivo plasma half-life compared to Tempol,"[13]; mice, co-administrated intravenously",extended
same,time with substantially higher activity than Tempol in plasma,"[13]; mice, i.p., 125 mg/kg E-TOPS co-administered with Tempol",at least 80 minutes
same,in vivo plasma half-life compared to Tempol,"[13]; mice, intramuscular co-administration",dramatically extended over Tempol for at least 60 minutes
